# According to patent US20250108037A1, “COMPOSITION CONTAINING ERGOTHIONEINE FOR SUPPRESSING OR PREVENTING INNER EAR HEARING LOSS” (MITSUBISHI GAS CHEMICAL COMPANY, INC., priority 2021, published 2025):
# Tested on: C57BL/6J mouse, age-related hearing loss model
# Assay: ABR (auditory brainstem response) test in age-related hearing loss model mice after oral administration once a day
# Format: in vivo
# Conditions: given as yeast extract powder
structure (smiles),measurement,setting,value
"C[N+](C)(C)[C@@H](Cc1c[nH]c(=S)[nH]1)C(=O)[O-] [ergothioneine, Ergothioneine]",hearing loss suppression effect,"Example 2, Tables 5 and 6, 24 and 32 kHz","confirmed at either frequency, but was particularly remarkable at 24 kHz"
same,progression of hearing loss,conclusion from the ABR results,delayed
